Consider 16 compounds from patent publication US20250388604A1, “Compounds and Their Use as PDE4 Activators” (Mironid Limited, priority 2022, published 2025).

Experiment [1] concerns m-IMCD3 cells expressing PDE4 long forms. The experiment in a line: cAMP levels in PGE2-stimulated 3D m-IMCD3 cell culture media. The format is cell-based. The note with it: Mus musculus, mIMCD3, compared to 100% for (DMSO + PGE2), read-out: cAMP level (% of PGE2-stimulated); for activity at 3 µM: 3 μM test compound. The procedure: HEK 293 and MDCK cells (Public Health England, Cell Culture Collections) were maintained in Dulbecco's Modified Eagle's Medium (DMEM) supplemented with 10% (v/v) fetal bovine serum (FBS) (Seralab), 2 mM L-glutamine and 100 U/mL penicillin streptomycin cocktail (ThermoFisher); termed complete media. Clonal HEK 293 cell lines were maintained in complete media supplemented with 0.6 mg/ml G418 (Enzo Life Sciences). Mouse inner medullary collecting duct (m-IMCD3) cells [American Type Culture Collection (ATCC)] were maintained in media consisting of DMEM/Hams F-12 50/50 Mix (DMEM F12; Corning) supplemented with penicillin streptomycin cocktail (100 U/mL) and FBS (10% v/v) (DMEM F12-10% FBS).
Activation of intracellular PDE4 long forms leads to a reduction of both intracellular cAMP and externalised cAMP (Omar et al., PNAS 116: 13320-13329, 2019). This reduction may be measured in the cell culture media supernatant of 3D cystic cell cultures, such as in the m-IMCD3 cell cyst suppression assay described in Experiment 3.
Following the completion of the m-IMCD3 cell cyst suppression assay (Experiment 3), the cAMP level in the assay media from individual or pooled assay wells was measured using a cAMP ELISA kit (Enzo Life Sciences) or a LANCE Ultra cAMP kit (PerkinElmer) according to the manufacturer's instructions.
In general terms: cAMP levels reflect the balance of adenylyl cyclase and phosphodiesterase activity.

The subject of experiment [2] is m-IMCD3 cells. The experiment in a line: Inhibition of PGE2-stimulated in vitro cyst formation in m-IMCD3 cells. The format is cell-based, mouse. Conditions: Mus musculus, mIMCD3, 144 h, mean cyst area, 100% for (DMSO + PGE2) and 0% for DMSO control, 6 days of culture; for activity at 3 µM: read-out: % Cyst area after incubation with 3 μM test compound; for activity at 10 µM: read-out: % Cyst area after incubation with 10 μM test compound. The gist of the method:
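m-IMCD3 cells embedded in collagen I/Matrigel 3D culture; 18–24 h after plating, compound (0.1% DMSO final) plus PGE2 (100 nM final) added, replenished after 2 or 3 days. After 6 days, z-stack imaging gave mean cyst area, normalized to DMSO+PGE2 (100%) and DMSO (0%).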

The target in experiment [3] is T1, human PDE4D5 (long isoform) (Homo sapiens, UniProt Q08499).
T1 construct: Using Full-Length Human PDE4 Isoforms; Long Forms PDE4D5, PDE4C3, PDE4B1 and Short Form PDE4B2; made in house; cytosol fraction (100,000 g supernatant) of the cell lysate, not purified
The experiment in a line: PDE assay, [3H]cAMP two-step radio-assay, PDE4D5 long isoform activation. The class given is biochemical. Conditions: 100 μM test compound; mean % increase in counts over basal activity. The procedure:
One suitable method of detecting whether or not a compound is capable of serving as an activator of a PDE4 long form is using a two-step radio-assay procedure described in Experiment 1. In summary, the method involves incubating a PDE4 long form with a test small molecule activator, together with [^3H]-labelled cAMP to assess alterations in the breakdown of cAMP to the 5′-adenosine monophosphate (5′-AMP) product. A sample of the reaction mixture from such an incubation is subsequently treated with snake venom 5′-nucleotidase to allow conversion of the nucleotide [^3H]-labelled 5′-AMP to the uncharged nucleoside [^3H]-labelled adenosine, which can be separated and quantified to assess PDE4 activity and the effect of the test compound (Thompson, W. J. and Appleman, M. M. Biochemistry 10: 311-316, 1971, with some modifications as described in: Marchmont, R. J. and Houslay, M. D. Biochem J. 187: 381-92, 1980). […]
The cell lysate containing recombinant PDE4D5 was transferred into a centrifuge tube and placed into an ultracentrifuge (BECKMAN COULTER) and spun at high speed (100,000 g) for 30 minutes at 4° C. The cytosol fraction was then collected and its protein amount determined using a BCA protein assay. […]

T1 sequence (Q08499 1-745 isoform Q08499-6): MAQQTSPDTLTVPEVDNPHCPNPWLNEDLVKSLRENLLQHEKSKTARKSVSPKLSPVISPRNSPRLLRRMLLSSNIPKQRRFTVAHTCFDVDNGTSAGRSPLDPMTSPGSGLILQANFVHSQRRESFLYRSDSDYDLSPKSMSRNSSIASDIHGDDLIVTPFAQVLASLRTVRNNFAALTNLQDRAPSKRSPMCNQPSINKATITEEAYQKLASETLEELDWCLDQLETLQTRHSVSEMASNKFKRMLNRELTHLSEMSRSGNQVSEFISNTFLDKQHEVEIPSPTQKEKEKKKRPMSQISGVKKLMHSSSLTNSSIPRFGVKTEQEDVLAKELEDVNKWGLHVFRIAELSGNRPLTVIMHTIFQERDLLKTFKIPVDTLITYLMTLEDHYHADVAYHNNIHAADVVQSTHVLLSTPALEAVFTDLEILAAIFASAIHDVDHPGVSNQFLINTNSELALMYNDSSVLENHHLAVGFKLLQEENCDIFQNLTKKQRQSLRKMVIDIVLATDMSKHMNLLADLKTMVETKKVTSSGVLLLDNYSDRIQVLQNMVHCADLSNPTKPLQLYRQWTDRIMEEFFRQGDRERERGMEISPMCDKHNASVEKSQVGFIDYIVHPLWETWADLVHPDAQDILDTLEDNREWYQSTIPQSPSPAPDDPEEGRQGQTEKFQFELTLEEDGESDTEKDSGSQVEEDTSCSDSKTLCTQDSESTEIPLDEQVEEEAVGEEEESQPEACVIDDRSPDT

As to `O=C(c1ccc(C(F)(F)F)nc1)N1CCc2nc(N3C4CCC3CNC4)sc2C1` [Example 241, (2-(3,8-diazabicyclo[3.2.1]octan-8-yl)-6,7-dihydrothiazolo[5,4-c]pyridin-5(4H)-yl)(6-(trifluoromethyl)pyridin-3-yl)methanone], the activity at 3 µM came to 43% in experiment [1] and 4% in experiment [2].
The like results for `CCCN1CC2CCC(C1)N2c1nc2c(s1)CN(C(=O)COc1ccc(F)cc1)CC2` [Example 303, 2-(4-fluorophenoxy)-1-(2-(3-propyl-3,8-diazabicyclo[3.2.1]octan-8-yl)-6,7-dihydrothiazolo[5,4-c]pyridin-5(4H)-yl)ethan-1-one] were, in that order, 55% and 0%.
The like results for `O=S(=O)(Cc1ccc(F)cc1)N1CCc2nc(N3C4CCC3CNC4)sc2C1` [Example 285, 2-(3,8-diazabicyclo[3.2.1]octan-8-yl)-5-((4-fluorobenzyl)sulfonyl)-4,5,6,7-tetrahydrothiazolo[5,4-c]pyridine] were, in that order, 35% and -3%.
`O=C(N[C@H]1CCOc2ccccc21)N1CCc2nc(N3C4CCC3CNC4)sc2C1` [Example 293, 2-(3,8-diazabicyclo[3.2.1]octan-8-yl)-N—((S)-chroman-4-yl)-6,7-dihydrothiazolo[5,4-c]pyridine-5(4H)-carboxamide]: the activity at 3 µM amounted to 36% in experiment [1] and 4% in experiment [2].
In the case of `O=C(NC1CCCC1)N1Cc2nc(N3C4CCC3CNC4)sc2C1` [Example 68, 2-(3,8-diazabicyclo[3.2.1]octan-8-yl)-N-cyclopentyl-4,6-dihydro-5H-pyrrolo[3,4-d]thiazole-5-carboxamide], in experiment [1], the activity at 3 µM stood at 19%. For the same compound, the activity at 10 µM in experiment [2] was -4%.
As to `CC(C)CC(=O)N1Cc2sc(N3C4CCC3CNC4)nc2C(C)(C)C1` [Example 257, 1-(2-(3,8-diazabicyclo[3.2.1]octan-8-yl)-7,7-dimethyl-6,7-dihydrothiazolo[5,4-c]pyridin-5(4H)-yl)-3-methylbutan-1-one], the activity at 3 µM was 36% in experiment [1] and -3% in experiment [2].
The like results for `O=C(CC1CCCC1)N1CCc2nc(N3CC4CCCC(C3)N4)sc2C1` [Example 280, 1-(2-(3,9-diazabicyclo[3.3.1]nonan-3-yl)-6,7-dihydrothiazolo[5,4-c]pyridin-5(4H)-yl)-2-cyclopentylethan-1-one] were, in that order, 33% and -10%.
As for `O=C(CC1CCCC1)N1Cc2nc(N3C4CCC3CNC4)sc2C1` [Example 66, 1-(2-(3,8-diazabicyclo[3.2.1]octan-8-yl)-4,6-dihydro-5H-pyrrolo[3,4-d]thiazol-5-yl)-2-cyclopentylethan-1-one], the activity at 3 µM in experiment [1] was 36%. Besides, the activity at 10 µM in experiment [2] is -5%.
In the case of `O=C(CC1CCCC1)N1CCc2nc(N3C4CCCC3CNC4)sc2C1` [Example 273, 1-(2-(3,9-diazabicyclo[3.3.1]nonan-9-yl)-6,7-dihydrothiazolo[5,4-c]pyridin-5(4H)-yl)-2-cyclopentylethan-1-one], the activity at 3 µM in experiment [1] is 58%; in experiment [2], -11%.
For the compound `O=C(CC1CCCC1)N1CCc2nc(C3CCNCC3)sc2C1` [Example 118, 2-cyclopentyl-1-(2-(piperidin-4-yl)-6,7-dihydrothiazolo[5,4-c]pyridin-5(4H)-yl)ethan-1-one], the activity at 3 µM in experiment [1] was found to be 52%. In addition, the activity at 10 µM in experiment [2] came out at 5%.
Turning to `O=S(=O)(Cc1ccccc1)N1CCc2nc(N3C4CCC3CNC4)sc2C1` [Example 288, 5-(benzylsulfonyl)-2-(3,8-diazabicyclo[3.2.1]octan-8-yl)-4,5,6,7-tetrahydrothiazolo[5,4-c]pyridine], the activity at 3 µM was 34% in experiment [1] and 7% in experiment [2].
Take `O=S(=O)(NC1CCCC1)N1CCc2nc(N3C4CCC3CNC4)sc2C1` [Example 108, 2-(3,8-diazabicyclo[3.2.1]octan-8-yl)-N-cyclopentyl-6,7-dihydrothiazolo[5,4-c]pyridine-5(4H)-sulfonamide]: the “% increase in PDE4D5 (long isoform) activity at 100 μM” value in experiment [3] is listed as 22%. The activity at 3 µM in experiment [1] worked out at 53%.
As for `CC(C)(C)CC(=O)N1CCc2sc(N3C4CCC3CNC4)nc2C1` [Example 282, 1-(2-(3,8-diazabicyclo[3.2.1]octan-8-yl)-6,7-dihydrothiazolo[4,5-c]pyridin-5(4H)-yl)-3,3-dimethylbutan-1-one], the activity at 3 µM in experiment [1] worked out at 35%; in experiment [2] it was 3%.
As to `CCN1CCN(c2nc3c(s2)CN(S(=O)(=O)Cc2ccc(F)cc2)CC3)CC1` [Example 304, 2-(4-ethylpiperazin-1-yl)-5-((4-fluorobenzyl)sulfonyl)-4,5,6,7-tetrahydrothiazolo[5,4-c]pyridine], the results for the activity at 3 µM in experiment [1] and in experiment [2] were 47% and 13%, respectively.
On to `CC1(CC(=O)N2CCn3nc(N4C5CCC4CNC5)cc3C2)CCCC1` [Example 128, 1-(2-(3,8-diazabicyclo[3.2.1]octan-8-yl)-6,7-dihydropyrazolo[1,5-a]pyrazin-5(4H)-yl)-2-(1-methylcyclopentyl)ethan-1-one], for which the activity at 3 µM in experiment [1] is 50%. Besides, the activity at 10 µM in experiment [2] is -2%.
As for `CC(C)(C)CC(=O)N1CCc2nc(N3C4CCC3CNC4)sc2C1` [Example 10, 1-(2-(3,8-diazabicyclo[3.2.1]octan-8-yl)-6,7-dihydrothiazolo[5,4-c]pyridin-5(4H)-yl)-3,3-dimethylbutan-1-one], the activity at 10 µM in experiment [1] (10 μM test compound) is 38%; in experiment [2], -3%.
